Reference: patent US9243076B2 (PIERRE FABRE MEDICAMENT, priority 2004, dated 2016)

Tests used:
[1] = Dissolution of the powder in aqueous solution (equivalent of 4 g/l piroxicam, sample after 15 min, HPLC); format: physicochemical; conditions: equivalent of 4 g/l of piroxicam in aqueous solution at 37° C.
[2] = 2:1 (v/v) dioxane:water mixture; cited from earlier work

Dissolution of the piroxicam (g/l) [1]: less than 0.2 g/l | Dissolution of the piroxicam ([1]; listed as Piroxicam): <0.2 g/L
Structure (SMILES): CN1C(C(=O)Nc2ccccn2)=C(O)c2ccccc2S1(=O)=O [piroxicam]
pKa value of the enol functional group [2]: ~2
